# From patent publication US20070166299A1, “TREATMENT FOR EMBOLIC STROKE” (priority 2005, published 2007)
# Like-named read-outs stand apart in the source and are kept apart here.
# Key:
# [1] = system: small clot embolic strokes in rabbits; test: rabbit small clot embolic stroke model (RSCEM), quantal analysis of behavior; format: in vivo
# Excerpt: The invention used a rabbit small clot embolic stroke model (RSCEM) that reproduces many facets of human AIS including a well-defined clinical endpoint. The RSCEM utilizes administration of a suspension of small blood clots to induce strokes, and behavioral deficits that can be measured quantitatively. Moreover, the RSCEM is useful to conduct studies testing the effects of single drugs or drug combinations such as a neuroprotective agent (e.g., NXY-059) plus a thrombolytic (Tenecteplase, Alteplase, Desmoteplase and the like). Since it is likely that a drug combination will be used for patient management it is important to determine whether there are any interactions (positive or negative) between the compounds when administered following embolic strokes.
# Methods: Male New Zealand white rabbits were anesthetized using halothane (5% induction, 2% maintenance by facemask), the bifurcation of the right carotid artery was exposed and the external carotid was ligated just distal to the bifurcation, where a catheter was inserted into the common carotid and secured with ligatures. The incision was closed around the catheter with the distal ends left accessible outside the neck; the catheter was filled with heparinized saline and plugged with an injection cap. Rabbits were allowed to recover from anesthesia for a minimum of 3 h until they awoke and behaved normally.
# For the RSCEM, microclots were prepared from blood drawn from a donor rabbit and allowed to clot at 37° C. All rabbits in the study received injections of the same sized microclots. For embolization, clot particles were rapidly injected through the carotid catheter and both the syringe and catheter were flushed with 5 ml of normal saline.
# Treatment Regimens: (A) Dose-Response Curve: NXY-059 was administered IV at a dose of 0.1-100 mg/kg infused over 30 min beginning 1 hour following embolization. (B) Therapeutic Window: NXY-059 (100 mg/kg) was given beginning 1, 3 or 6 hours following embolization. (C) Tenecteplase Dosing: Tenecteplase was administered IV at a dose of 0.9 mg/kg as a bolus injection given over one minute was administered 1 or 6 hours following embolization. (D) Combination studies: NXY-059 was administered IV at a dose of 100 mg/kg infused over 30 min and Tenecteplase was administered IV at a dose of 0.9 mg/kg beginning 1 or 6 hours following embolization.
# Quantal Dose-Response Analysis: For the RSCEM, a quantal dose-response data analysis technique was used. A wide range of lesion volumes is induced to generate both normal and abnormal animals. Using 3 or more different doses of microclots generated each quantal analysis curve. […] Each animal is rated as either normal or abnormal (including dead animals), and inter-rater variability is very low (<5%). […] With this simple rating system, the composite result for a group of animals is quite reproducible. The P50 values are then calculated. These parameters are measures of the amount of microclots (in mg) that produce neurologic dysfunction in 50% of a group of animals. A separate curve is generated for each treatment condition that was tested. The data were analyzed using the t-test, which included the Bonferroni correction where appropriate.
# Using the RSCEM model as described above male New Zealand white rabbits weighing 2.2-2.6 Kg were anesthetized and a catheter was inserted into the common carotid artery through which microclots were injected. Briefly, the bifurcation of one carotid artery was exposed and the external carotid was ligated just distal to the bifurcation. A catheter was inserted into the common carotid and secured with ligatures. The incision was closed around the catheter so that the distal end was accessible outside the animal's neck. The catheter was then filled with heparinized saline and plugged with an injection cap. Rabbits were allowed to recover from anesthesia until they were awake and behaving normally. […]
# [2] = system: spinal cord ischemia induced by temporary occlusion of the infrarenal aorta; test: rabbit reversible spinal cord ischemia model (RSCIM); format: in vivo
# Description: In a rabbit reversible spinal cord ischemia model (RSCIM). ABHS was administered (25 mg/kg) intravenously (i.v.) 5 or 30 min following the start of occlusion to groups of rabbits exposed to ischemia induced by temporary occlusion of the infrarenal aorta. The group P50 represents the duration of ischemia (min) associated with a 50% probability of resultant permanent paraplegia.
# [3] = cited from earlier work
# [4] = ABHS 25 mg/kg, 60 min following embolization
# [5] = ABHS 25 mg/kg, 180 min following embolization
# [6] = ABHS 25 mg/kg i.v., 5 min post-occlusion
compound,measurement,setting,value
"CC(=O)[C@H]1CC[C@H]2[C@@H]3CC[C@@H]4C[C@H](OC(=O)CCC(=O)O)CC[C@]4(C)[C@H]3CC[C@]12C [ABHS, 3-alpha-ol-5-beta-pregnan-20-one hemisuccinate]",Observation,"[1]; ABHS 25 mg/kg, 5 min following embolization",Sedation
same,Observation,[1]; [4],Sedation
same,P50,[1]; [4],1.05 ± 0.24 mg
same,Observation,[1]; [5],Sedation
same,P50,[1]; [5],1.42 ± 0.35 mg
same,effect on therapeutic window for tPA,[1]; ABHS with tPA (FIG. 7),increases the therapeutic window for tPA
same,duration of sedation (loss of righting reflex) after drug injection,[1]; IV ABHS administration to rabbits,2 to 3 h
same,P50 (duration of ischemia associated with 50% probability of permanent paraplegia),[2]; [6],49.18 ± 10.44 min
same,increase of P50 over control,[2]; [6],110%
same,tolerance to ischemia,[2]; ABHS administered 30 min following the start of occlusion,increased the tolerance to ischemia
same,persistence of effect,[2]; ABHS injected 5 min following the start of ischemia and again 24 h after ischemia,persistent effect of the drug at 48 h
"O=c1cc(-c2ccccc2)oc2cc(O)c(O)c(O)c12 [Baicalein, 5,6,7 trihydroxyflavone]",P50,"[1]; Baicalein 100 mg/kg SC, 5 minutes following embolization",2.85 ± 0.64 mg
"O=C(C=Cc1ccc(O)c(O)c1)OC1CC(O)(C(=O)O)CC(O)C1O (stereo not drawn) [CGA, 3-[[3-(3,4-Dihydroxyphenyl)-1-oxo-2-propenyl]oxy] 1,4,5-trihydroxycyclohexanecarboxylic acid]",P50,"[1]; CGA 50 mg/kg IV, 5 minutes following embolization, behavior 24 hours",3.61 ± 0.52 mg
same,P50,"[1]; CGA 50 mg/kg single bolus, 1 hour post-embolization",2.57 ± 0.28 mg
same,P50,"[1]; CGA 50 mg/kg, 3 hours following embolization",1.22 ± 0.24 mg
"O=c1c(O)c(-c2ccc(O)c(O)c2)oc2cc(O)ccc12 [Fisetin, fisetin]",P50,"[1]; Fisetin 50 mg/kg IV, 5 minutes following embolization",2.18 ± 0.42 mg
"CC(C)(C)[N+]([O-])=Cc1ccc(S(=O)(=O)O)cc1S(=O)(=O)O.[Na].[Na] [NXY-059, disodium 2,4-disulfophenyl-N-tert-butylnitrone]",P50,"[1]; NXY-059 100 mg/kg IV, 1 hour following embolization, measured 24 hours after embolization",2.81 ± 0.46 mg
same,P50,"[1]; NXY-059 100 mg/kg, 3 hours following embolization",1.78 ± 0.42 mg
same,increase of P50 over vehicle control,[1]; NXY-059 1-100 mg/kg administered following embolization,100-134%
same,effect on P50 (dose-response),"[1]; NXY-059 doses from 1-100 mg/kg, 1 hour following embolization",significantly increased the P50
CC12CC3CC(C)(C1)CC(N)(C3)C2 [memantine],effect on efficacy of low-dose tPA,[1]; memantine with low-dose tPA (FIG. 8),increases the efficacy of low-dose tPA: synergy
"tPA: thrombolytic, tissue plasminogen activator; FDA-approved treatment for acute ischemic stroke",P50,"[1]; low-dose tPA 0.9 mg/kg alone, 60 min following embolization",1.25 ± 0.25 mg
same,P50,"[1]; tPA 3.3 mg/kg alone, 60 min after embolization (ABHS study)",2.69 ± 0.19 mg
same,P50,"[1]; tPA 3.3 mg/kg, 1 hour after embolization (CGA study)",2.89 ± 0.29 mg
same,P50,"[1]; tPA 3.3 mg/kg, 3 hours after embolization (CGA study)",1.54 ± 0.27 mg
same,increase of hemorrhage rate,[3]; high dose of tPA 3.3 mg/kg,52%
same,increase of hemorrhage rate,[3]; low dose of tPA 0.9 mg/kg,28%
